Patent US6605603B1, “Uses of 1-amino-3-(N,N-dimethylamino)-propylidene-1,1-bisphosphonic acid” (Gador, S.A., priority 1998, dated 2003)
“Also recorded” adds a separate entry of the source. Marks after values point to notes of the source that are not given here.

Assays:
[1] = test system: Osteoblast-like rat osteosarcoma cells (ROS17/2.8); experiment: Determination of osteocalcin synthesis (radio-immunoassay of OC released into the medium); format: cell-based; settings: for order of potency relative to 1,25(OH)2D3 (induction of OC synthesis): 1,25(OH)2D3 = 1.0; for effectiveness on OC synthesis compared with the steroid hormone 1,25(OH)2D3 / stimulation of OC synthesis: 72 hours incubation
Method: Cells were grown by 72 hours in the absence (control) or presence of the indicated concentrations of 1α, 25-dihydroxy-vitamin D3[1,25(OH)2D3], EHDP, APD, OPD or NH2-OPD. Then osteocalcin (OC) released into the medium was quantitated as described in Example 4. Data are the average±SD of 3 independent experiments performed by triplicate.
(§1) Osteoblast-like rat osteosarcoma cells (ROS17/2.8) were cultured as monolayers at 37° C. in Dulbecco's modified Eagle's medium (DME) containing 10% fetal bovine serum under humidified air (5.5% CO2). After 48 hours, medium was changed to DME containing 1% fetal bovine serum. Unless otherwise stated, cells were allowed to grow until confluence (4-5 days after plating).
Osteoblasts grown by 48 hours in multiwells were changed to Dulbecco's modified Eagle's medium containing 1% fetal bovine serum plus the indicated concentration of BP, 10^−8 M 1,25(OH)2D3 (positive control), or vehicle alone, and then allowed to grow for an additional period of 72 hours. The medium from each well was collected and stored frozen at −80° C. until use for osteocalcin measurements. Osteocalcin (OC) was quantitatively measured by radio-immunoassay using a commercially avalaible kit (Osteocalcin DSL-6900, Diagnostic Systems Laboratories Inc., Webster, Tex., USA) according to manufacturer's instructions. Osteocalcin values were corrected for total cellular protein content.

[2] = test system: Osteoblast-like rat osteosarcoma cells (ROS17/2.8); experiment: Intracellular calcium measurements (Fura-2 fluorimetry), with or without VDCC blockers, PLC inhibitors or thapsigargin; format: cell-based; design: Δ[Ca^2+]i: unit not given here; settings: for Ca^2+ response after depletion of Ca^2+ stores with thapsigargin: 1 μM thapsigargin, bisphosphonate 10 nM; for % Inhibition (decrease in Δ[Ca^2+]i) / [Ca^2+]i / Δ[Ca^2+]i: 10^−8 M; for rapid (1 min) increase in cytosolic Ca^2+ after pretreatment with PLC inhibitors: U73122 (2 μM) or neomycin (0.5 mM); for rapid (1 min) increase in cytosolic Ca^2+ after pretreatment with U73343: U73343, analogue of U73122 devoid of effect on PLC, not shown; for reduction of the induced [Ca^2+]i increase by VDCC blockers: pretreatment with nifedipine (2 μM) or verapamil (5 μM)
Method: as §1
Intracellular Ca^2+ changes were monitored by using the Ca^2+-sensitive fluorescent dye Fura-2 as previously described (Vasquez et al., 1998, J. Biol. Chem. 273, 33954-33960). Cell dye loading was achieved by incubating the cells in buffer A containing (in mM): 138 NaCl, 5 KCl, 1 MgCl2, 5 glucose, 10 HEPES (pH 7.4), 1.5 CaCl2, plus 0.1% bovine serumalbumin (BSA), 2 μM of the pentaacetoxymethylester derivative (membrane permeable) Fura-2/AM and 0.012% pluronic F-127, in the dark during 40 min at room temperature (20-25° C.) in order to minimize dye compartmentalization. Unloaded dye was washed out and cells were stored in buffer B (buffer A without BSA, Fura-2/AM and pluronic F-127) in the dark (room temperature) by at least 30 min prior to use, to allow for complete intracellular dye deesterification. For fluorescence measurements the coverslips containing dye-loaded cells were mounted into quartz cuvettes and introduced into the thermostatized (37° C.) sample compartment of a SLM Aminco 8100 spectrofluorimeter. Fura-2 intracellular fluorescence intensity was monitored at an emission wavelength of 510 nm (8 nm bandpass) by alternating with an electronically controlled chopper (300 Hz) the excitation wavelength between 340 and 390 nm employing a dual excitation monochromator at 4 nm bandpass. Signals from short and long wavelength were ratioed (R=340/390) thus making the measurement independent of variations in cellular dye content, dye leakage or photobleaching. Calibration of Fura-2 signal to calculate [Ca^2+]i values was performed for each coverslip as follows: maximal (Rmax) and minimal (Rmin) intracellular dye fluorescence signals were determined by adding 5 μM ionomycin plus 3 mM Ca^2+ and 10 mM EGTA (pH 7.0) plus 10 mM Tris-base (pH 9.0), respectively.
[Ca^2+]i=Kd(R−Rmin)/(Rmax−R)×β
where R is the ratio of Fura-2 fluorescence at the selected wavelengths, Rmax and Rmin represent ratios from Ca^2+ saturated and Ca^2+ free intracellular dye, respectively, and β is the ratio between the specific fluorescence of the Ca^2+ free and Ca^2+ bound forms of the dye at the longer wavelength (Sf2/Sb2).
Fura-2 loaded osteoblasts were treated with vehicle (buffered saline solution, Basal), OPD (10−8 M) or NH2-OPD (10^−8 M) and intracellular Ca^2+ concentration ([Ca^2+]i) was measured as described. Given are [Ca^2+]i values corresponding to the plateau phase (5 min after BP exposure; see FIG. 3) of the BP-induced Ca^2+ response. When used, both nifedipine (2 μM) and verapamil (5 μM) were added 3 min before stimulation. Data are the average of 5 independent [Ca^2−]i recordings±sd. p values (*p<0.001; **p<0.01) are given for significant differences respect to basal. Percent (%) inhibition refers to the decrease in Δ[Ca^2+]i.
Fura-2 loaded cells were treated with vehicle (buffered saline solution, Basal), OPD (10^−8 M) or NH2-OPD (10^−8 M) and intracellular Ca^2+ concentration ([Ca^2+]i) was measured as described. Unless otherwise indicated, [Ca^2+]i stimulation was evaluated at the plateau phase of the BP-induced response (see FIG. 3). When used, the PLC inhibitors U73122 (2 μM) or neomycin (0.5 mM, data in parentheses) were added into the measurement cuvette 3 min before stimulation. In the PLC-inhibition assay [Ca^2+]i values measured at 1- and 5-min. after stimulation are given. Results are expressed as percent of control (100%) to allow comparison among different assay conditions, and are the average of 3 independent experiments±sd. *p<0.001; **p<0.01. Percent (%) inhibition refers to the decrease in Δ[Ca^2+]i.

bone resorption = settings: Van Beek E. et al., 1996, J. Bone Miner. Res. 11, 1492-1497; cited from earlier work
[3] = U73122 (2 μM), 1 min after stimulation
[4] = U73122 (2 μM), 5 min after stimulation
[5] = neomycin (0.5 mM, data in parentheses), 1 min
[6] = neomycin (0.5 mM, data in parentheses), 1 min after stimulation
[7] = neomycin (0.5 mM, data in parentheses), 5 min
[8] = neomycin (0.5 mM, data in parentheses), 5 min after stimulation
[9] = plateau phase (5 min), nifedipine (2 μM) pretreatment
[10] = plateau phase (5 min), nifedipine (2 μM) pretreatment 3 min before
[11] = plateau phase (5 min), no pretreatment, basal 135 ± 6
[12] = plateau phase (5 min), no pretreatment, difference to basal
[13] = plateau phase (5 min), verapamil (5 μM) pretreatment
[14] = plateau phase (5 min), verapamil (5 μM) pretreatment 3 min before
[15] = plateau phase, no PLC inhibitor
[16] = plateau phase, no PLC inhibitor, difference to control (100%)

Row | SMILES | order of potency relative to 1,25(OH)2D3 (induction of OC synthesis) ([1]; 10^−8 M, 72 hours) | time-to-peak of cytosolic Ca^2+ change ([2]; 10 nM) [s] | effectiveness on OC synthesis compared with the steroid hormone 1,25(OH)2D3 [1] | maximal change in cytosolic Ca^2+ relative to 1,25(OH)2D3 ([2]; 10 nM) | stimulation of OC synthesis [1] | Ca^2+ response after depletion of Ca^2+ stores with thapsigargin [2] | % Inhibition (decrease in Δ[Ca^2+]i) ([2]; U73122 (2 μM), 1 min) | [Ca^2+]i [2, 3] | % Inhibition (decrease in Δ[Ca^2+]i) ([2]; U73122 (2 μM), 5 min) | [Ca^2+]i [2, 4] | % Inhibition (decrease in Δ[Ca^2+]i) [2, 5] | [Ca^2+]i [2, 6] | % Inhibition (decrease in Δ[Ca^2+]i) [2, 7] | [Ca^2+]i [2, 8] | % Inhibition (decrease in Δ[Ca^2+]i) [2, 9] [%] | Δ[Ca^2+]i [2, 9] | [Ca^2+]i [2, 10] | [Ca^2+]i [2, 11] | Δ[Ca^2+]i [2, 12] | % Inhibition (decrease in Δ[Ca^2+]i) [2, 13] [%] | other results
1 | C=C1/C(=C\C=C2/CCC[C@]3(C)[C@@H]([C@H](C)CCCC(C)(C)O)CC[C@@H]23)C[C@@H](O)C[C@@H]1O [1,25(OH)2D3, 1α, 25-dihydroxy-vitamin D3] | 1.0 | 90 | – | – | – | – | – | – | – | – | – | – | – | – | – | – | – | – | – | – | release of OC into the culture medium increased respect to control, untreated cells ([1]; 10^−8 M, 72 hours): 100%
2 | NCCC(O)(P(=O)(O)O)P(=O)(O)O [APD, pamidronate] | 1.1 | 80 | more effective than the steroid hormone | less effective than the steroid | – | – | – | – | – | – | – | – | – | – | – | – | – | – | – | – | –
3 | CC(O)(P(=O)(O)O)P(=O)(O)O [EHDP, etidronate] | 0.85 | 120 | – | less effective than the steroid | – | – | – | – | – | – | – | – | – | – | – | – | – | – | – | – | rate of Ca^2+ elevation, initial phase (0-2 min) ([2]; 10 nM): slowest rate of Ca^2+ elevation
4 | CN(C)CCC(N)(P(=O)(O)O)P(=O)(O)O [NH2-OPD, 1-amino-3-(N,N-dimethylamino)-propylidene-1,1-bisphosphonic acid] | 0.85 | 80 | lower than for the secosteroid | less effective than the steroid | markedly stimulated OC synthesis in a dose-dependent fashion | completely blocked | 100% | 101 ± 5% of control (100%) | 100(100) % | 100 ± 11% of control (100%) | 99% | 99 ± 1% of control (100%) | 100(100) % | 100 ± 5% of control (100%) | 90 | 2 | 137 ± 6 nM | 150 ± 3** nM | 15 | 100 | [Ca^2+]i [2, 14]: 133 ± 7 nM; [Ca^2+]i [2, 15]: 137 ± 3** percent of control (100%); Δ[Ca^2+]i [2, 16]: 37; rapid increase in [Ca^2+]i (time of onset) ([2]; Fura-2 loaded cells): 60 s; rapid (1 min) increase in cytosolic Ca^2+ after pretreatment with PLC inhibitors [2]: totally blocked; rapid (1 min) increase in cytosolic Ca^2+ after pretreatment with U73343 [2]: not by U73343; reduction of the induced [Ca^2+]i increase by VDCC blockers [2]: almost completely abolished; return of [Ca^2+]i to near basal levels after peak ([2]; transient Ca^2+ rise, down-turn phase after peak): 1 to 2 min; antiresorptive activity (bone resorption): complete loss of antiresorptive activity; also recorded: absolutely devoid of antiresorptive properties
5 | CN(C)CCC(O)(P(=O)(O)O)P(=O)(O)O [OPD, olpadronate] | 1.9 | 60 | more effective than the steroid hormone | equipotent to the steroid | markedly stimulated OC synthesis in a dose-dependent fashion | completely blocked | 100(100) % | 105 ± 3% of control (100%) | 100(100) % | 100 ± 5% of control (100%) | 100(100) % | 98 ± 2% of control (100%) | 100(100) % | 100 ± 8% of control (100%) | 70 | 21 | 156 ± 8** nM | 205 ± 10* nM | 70 | 85 | Δ[Ca^2+]i [2, 13]: 11; [Ca^2+]i [2, 14]: 146 ± 5 nM; [Ca^2+]i [2, 15]: 164 ± 9* percent of control (100%); Δ[Ca^2+]i [2, 16]: 64; rapid (1 min) increase in cytosolic Ca^2+ after pretreatment with PLC inhibitors [2]: totally blocked; rapid (1 min) increase in cytosolic Ca^2+ after pretreatment with U73343 [2]: not by U73343; reduction of the induced [Ca^2+]i increase by VDCC blockers [2]: 70%
